# Assay results as given in patent publication US8394971B2, “Indole derivatives as selective androgen receptor modulators (SARMS)” (Janssen Pharmaceutica N.V., priority 2004, dated 2013).
# Several values for one entry are separate records, joined by “and”; a condition that tells them apart may be missing. Equal entries are not always repeated.
# Experiments:
# [1] = biological target: T1, androgen receptor (adenovirus AdEasy+rAR in L929 cells) (Rattus norvegicus, UniProt P15207); assay: L929 Androgen Receptor Functional Assay, Adenovirus Transduction; format: cell-based; settings: for % Activity: L929 agonist testing
# T1 construct: expressed in transfected cells
# T1 sequence (P15207 1-902): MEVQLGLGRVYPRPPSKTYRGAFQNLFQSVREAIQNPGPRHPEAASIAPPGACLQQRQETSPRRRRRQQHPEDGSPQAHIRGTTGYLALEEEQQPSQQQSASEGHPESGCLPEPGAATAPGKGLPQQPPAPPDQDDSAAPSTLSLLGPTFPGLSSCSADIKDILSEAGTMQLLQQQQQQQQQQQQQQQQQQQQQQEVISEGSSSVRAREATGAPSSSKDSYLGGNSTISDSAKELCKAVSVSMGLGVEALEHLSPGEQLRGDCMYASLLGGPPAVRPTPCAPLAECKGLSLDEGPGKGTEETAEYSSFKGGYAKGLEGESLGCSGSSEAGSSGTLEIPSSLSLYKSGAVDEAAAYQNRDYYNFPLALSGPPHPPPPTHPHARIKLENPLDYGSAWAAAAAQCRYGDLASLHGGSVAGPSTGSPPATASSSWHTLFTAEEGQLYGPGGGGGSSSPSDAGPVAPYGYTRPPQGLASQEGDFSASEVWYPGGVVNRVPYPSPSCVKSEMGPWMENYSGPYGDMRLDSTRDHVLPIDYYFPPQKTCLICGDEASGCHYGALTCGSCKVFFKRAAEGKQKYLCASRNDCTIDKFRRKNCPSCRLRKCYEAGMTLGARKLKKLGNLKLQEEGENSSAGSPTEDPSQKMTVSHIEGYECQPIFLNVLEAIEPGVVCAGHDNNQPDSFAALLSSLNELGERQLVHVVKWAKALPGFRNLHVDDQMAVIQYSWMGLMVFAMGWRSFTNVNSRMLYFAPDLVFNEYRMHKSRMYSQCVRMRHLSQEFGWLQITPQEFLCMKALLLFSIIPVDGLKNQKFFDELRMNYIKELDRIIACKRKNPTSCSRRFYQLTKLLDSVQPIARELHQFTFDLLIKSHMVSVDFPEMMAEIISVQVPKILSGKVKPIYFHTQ
# Method: L929 cells were plated in 96-well plates at 20,000 cells per well, in DMEM/F12 (GIBCO) containing 10% (v/v) charcoal-treated fetal bovine serum (Hyclone) and lacking phenol red. The plates were then incubated overnight at 37° C. in 5% (v/v) humidified CO2.
# Test compound dilutions were prepared in 100% (v/v) DMSO, if necessary. Each dilution was made to 1250× the final desired assay concentration.
# First, 2 mL of DMEM/F12 lacking phenol red was pipetted into the wells of a 2-mL 96-well assay block. Next, 4 μL of the 1250× test compound dilutions were pipetted into each well of the assay block. The mixtures within the well were then carefully mixed by pipette.
# In a 15 mL or 50 mL sterile centrifuge tube, a 2.5 nM (2.5×) dilution of R1881 (methyl-trienolone) in DMEM/F12 lacking phenol red was prepared.
# In a second 15 mL or 50 mL centrifuge tube a solution containing an equal volume of DMEM to the first and an equal volume of 100% (v/v) DMSO to the volume of R1881 used in the first tube was prepared.
# In a 15 mL or 50 mL sterile centrifuge tube, a dilution in DMEM/F12 of the adenovirus AdEasy+rAR at an moi of 1:500 per well was prepared.
# The medium was removed from the 96-well plates by inversion and dried, inverted, very briefly. As soon as possible after medium removal, 40 μL of the diluted unlabeled test compound was added to each well, in duplicate. To each well designated for antagonist testing was added 40 μL of the 2.5 nM R1881 dilution to the wells for antagonist testing. To each well designated for agonist testing was added 40 μL of the DMSO dilution. Then 20 μL of the diluted adenovirus were added to all wells. The plates were incubated for 48 hours at 37° C. in 5% (v/v) humidified CO2.
# To each well was added 100 μL of Steady-Glo luciferase assay substrate (Promega) and the plates were placed on a rotary shaker for 1 min. The plates were then incubated at room temperature in the dark for one hour. The contents of each well were then transferred to a white microtiter plate (Packard) and read on a Luminoskan Ascent (Thermo Lab Systems).
# L929 AR percent activity was determined by testing dilutions of the test compound using a concentration of 3000 nM unless otherwise noted. L929 percent inhibition was determined by testing dilutions of the test compound using a concentration of 3000 nM. […] Luciferase activity per well were measured and EC50s and IC50s determined by linear regression.
# [2] = test system: testosterone-enhanced ventral prostate and seminal vesicle weights in castrated male Sprague Dawley rats; assay: Ventral Prostate and Seminal Vesicle Weight In Vivo Assay; set-up: species or system rat; settings: immature castrated rats; once daily for five days, usually orally at 40 mg/kg, with testosterone propionate 2 mg/kg s.c.
# Method: Immature (approximately 50 g) castrated male Sprague Dawley rats (Charles River) were treated once daily for five days with test compound (usually given orally at 40 mg/kg in a volume of 0.3 mL, in 30% cyclodextrin or 0.5% methylcellulose vehicle) and with testosterone propionate (given subcutaneously by injection at the nape of the neck at 2 mg/kg, in a volume of 0.1 mL in sesame oil). On the sixth day, the rats were euthanized by asphyxiation in carbon dioxide. Ventral prostates and seminal vesicles were removed and their wet weights determined.
# A test compound was said to be “active” if the non weight adjusted prostate weight was ≦40 mg or the % Inhibition prostate weight, body weight adjusted was ≧40% @2 mg/day dosage.
SMILES,% Activity ([1]; 3000 nM) [%],% Activity ([1]; @ 8000 nM),active / inactive (inhibition of testosterone-enhanced prostate weight) [2],"% Activity ([1]; 3000 nM, 3 µM)","inhibition at 3 µM ([1]; L929, L929 antagonist testing with R1881, 3000 nM) [%]"
CC(O)(CSc1ccccc1N)c1cc2cc(Cl)c(C(F)(F)F)cc2[nH]1 (centres unmarked) [compound 123],−4,1 @ 8000 nM %,inactive,–,–
CCCSCC(C)(O)c1cc2cc(Cl)c(C(F)(F)F)cc2[nH]1 (racemic) [compound 196],13,–,inactive,–,–
CSCCC(C)(O)c1cc2cc(Cl)c(C(F)(F)F)cc2[nH]1 (racemic) [compound 51],2,–,inactive,–,–
CSC(C)(O)c1cc2cc([N+](=O)[O-])c(C(F)(F)F)cc2[nH]1 (racemic) [compound 267],–,–,inactive,−5% and 0%,–
CC[S+]([O-])CC(C)(O)c1cc2cc(C(F)(F)F)c([N+](=O)[O-])cc2[nH]1 (mixture of isomers) [compound 230],0,–,active,–,–
CCSCC(O)(CC)c1cc2cc(C#N)c(C(F)(F)F)cc2[nH]1 (centres unmarked) [Compound #223],–,0 @ 8000 nM %,active,–,–
CC(O)(CS(=O)(=O)CC(F)(F)F)c1cc2cc([N+](=O)[O-])c(C(F)(F)F)cc2[nH]1 (racemic) [compound 208],1,–,active,–,–
CC[S+]([O-])CC(O)c1cc2cc([N+](=O)[O-])c(C(F)(F)F)cc2[nH]1 (mixture of isomers) [compound 180],2,–,inactive,–,–
CC(O)(CSCc1ccco1)c1cc2cc([N+](=O)[O-])c(C(F)(F)F)cc2[nH]1 (racemic) [compound 198],7,–,inactive,–,–
CCS(=O)(=O)CC(C)(O)c1cc2cc(C#N)c(C(F)(F)F)cc2n1C (racemic) [compound 240],0,–,inactive,–,–
"CCSCC(C)(O)c1cc2cc(C#N)c(C(F)(F)F)cc2[nH]1 (centres unmarked) [Compound #218, 2-(2-Ethylsulfanyl-1-hydroxy-1-methyl-ethyl)-6-trifluoromethyl-1H-indole-5-carbonitrile]",0,–,inactive,–,–
CCSCC(C)(O)c1[nH]c2cc(C(F)(F)F)c(Br)cc2c1C (centres unmarked) [compound 220],−3,–,inactive,–,103
CCSCC(C)(O)c1[nH]c2cc(C(F)(F)F)c(C#N)cc2c1C (centres unmarked) [compound 219],–,–,inactive,−3%,–
CN(C)c1ccc(SCC(C)(O)c2cc3cc(Cl)c(C(F)(F)F)cc3[nH]2)cc1 (centres unmarked) [compound 124],−4,–,inactive,–,–
CCSCC(C)(O)c1[nH]c2cc(C(F)(F)F)c([N+](=O)[O-])cc2c1C (racemic) [compound 221],−1,–,inactive,–,–
